One molecule from US12344587B2, “Synthetic retinoids for use in RAR activation” (UNIVERSITY OF DURHAM, priority 2019, dated 2025) can be followed below.

The subject of one data set is ERK1/2. As to the kind of experiment: ERK1/2 phosphorylation assay, AlphaLISA SureFire Ultra (non-genomic activity). The class given is cell-based. Further details: Non-genomic activity (ERK½ Phosphorylation Assay) Efficacy (Emax): unit not given here. The following applies: SH-SY5Y cells, serum-free, 30 minutes stimulation. Here is the method: The non-genomic activity of synthetic retinoids was evaluated by measuring their ability to induce phosphorylation of ERK1/2 using the AlphaLISA® SureFire® Ultra ERK1/2 kit.
In this assay, SH-SY5Y cells (100,000 cells/well) were plated in 96-well plates and serum-starved in DMEM for 24 hours. Retinoids were tested at concentrations from 10−5 M to 10−11 M and at a final concentration of 0.1% DMSO in the medium. The assay was carried out on the SH-SY5Y cells in serum-free DMEM, cells were stimulated by retinoid for 30 minutes at 37° C.
At the end of the assay, the medium was removed, and cells were lysed in 50 μl of freshly prepared 1× lysis buffer (supplied in the kit). The 96-well plate was agitated on an orbital shaker (SO1, Stuart Scientific) at approximately 350 rpm for 10 minutes at room temperature.
In the meantime, the activation buffer was diluted 25-fold in the reaction buffers. Under green light in a dark room, the acceptor beads were diluted 50-fold in the freshly prepared reaction mix while the donor beads were diluted 50-fold in dilution buffer to obtain two final reaction mixtures.
10 μl of cell lysate was then transferred per well into 384-well white Proxiplates plates (PerkinElmer) and 5 μl of each prepared acceptor and donor reaction mixture was added under green light in a dark room. Plates were wrapped with aluminium foil and incubated at room temperature for at least 3 hours. Readings were taken using an Envision system (PerkinElmer Life Sciences) using the AlphaScreen® settings.
(In general: Bead proximity is the source of the signal in Alpha formats.)

Data set [1] is described as follows: Turbidimetric aqueous solubility. The class given is physicochemical. The following applies: aqueous buffer, kinetic from dmso stock, 0.01 M phosphate buffered saline pH 7.4, 1% DMSO, 37° C. On the procedure: Test compound (10 mM in DMSO) is serially diluted to give solutions of 0.1, 0.3, 1 and 3 mM in DMSO. Each test compound concentration is then further diluted 1 in 100 in buffer (0.01 M phosphate buffered saline pH 7.4) so that the final DMSO concentration was 1% and the final test compound concentrations were 1, 3, 10, 30 and 100 μM. The experiment was performed at 37° C. and each concentration sample was incubated in 7 replicate wells. The plates were incubated for 2 hr at 37° C. before the absorbance was measured at 620 nm. The solubility of the sample was estimated from the concentration of test compound that produced an increase in absorbance above vehicle control (i.e., 1% DMSO in buffer).

The next data set relates to SH-SY5Y cells. Put plainly: Induction of neurite outgrowth. Type of data set: cell-based. The following applies: Homo sapiens, 120 h, 10 nM, 5 days, read-out: Neurite Outgrowth Fold increase. On the procedure:
SY—SY5Y cells were plated at 10,000 cells/well in 12-well plates containing acid-treated/poly-L-lysine-coated coverslips. After 24 hours, each retinoid was added to the medium at a concentration of 10 nM and the plates were incubated for 5 days. After retinoid treatment, SH-SY5Y cells on coverslips were washed twice in PBS, fixed in 4% paraformaldehyde (PFA) for 20 minutes at room temperature, and washed twice with PBS.
For immunocytochemical staining of neurites, cells on coverslips were washed three times in PBS, and incubated in blocking solution (10% donkey serum and 0.1% triton X-100 in PBS) for 1 hour at room temperature. Cells were then labelled by incubation overnight at 4° C. with β-III tubulin primary antibody (Sigma-Aldrich) diluted 1:1000 in blocking buffer. Following incubation overnight, cells were washed three times with PBS containing 0.1% Triton X-100 solution (PBST) before incubation with anti-mouse monoclonal secondary antibody (1:300 in PBST; Jackson Immunoresearch) for 2 hours at room temperature. Finally, after three washes in PBST and a final wash in PBS, the coverslips were mounted on slides and stored at 4° C.
ImageJ software with the NeuronJ plugin was used to quantify neurite outgrowth on stained cells. For each experiment, 10 different randomly selected images were taken from each cover slip using a Nikon Eclipse E400 fluorescence microscope. Each image was converted into an 8-bit image (necessary for the NeuronJ plugin) and optimised with the brightness and contrast tool in GIMP (GNU Image Manipulation Program). For each image, individual traces were drawn for each clearly-identifiable neurite using the tracing tool in the NeuronJ plugin. Neurite length was measured in pixels and transformed into the corresponding length in μm depending on the magnification used. The average neurite length for each image was calculated by dividing total neurite length by the total number of neurites per image. Ten images per cover slip were measured and the mean calculated for the coverslip overall. Coverslips were in triplicate for each retinoid and concentration.

Data set [2] deals with retinoic acid response element (RARE). As to the kind of experiment: X-Gal RA based reporter assay (genomic activity). The class given is cell-based. The following applies: Sil-15 reporter cells, overnight incubation. Here is the method:
The genomic activity of synthetic retinoids was evaluated by determining their efficiency of inducing transcription using the X-Gal Assay. The X-Gal Assay utilizes Sil-15 reporter cells in which the transcription of the LacZ gene is under control of a promoter linked to a retinoic acid response element (RARE). After treatment of the reporter cells with retinoids, the ability of the compounds to induce transcription can be attained by monitoring and quantifying the activity of β-galactosidase produced by the reporter cells.
Sil-15 cells were plated at 100,000 cells per well in 96-well plates coated in 0.1% gelatin. The following day, serial dilutions of retinoid ligands, prepared in Dulbecco's Modified Eagle's Medium (DMEM) containing 10% foetal calf serum (FCS) were added at concentrations from 10^−6 M to 10^−14 M and the plates were incubated overnight. All concentrations for the ATRA standard curve and the other retinoid ligands were tested in triplicate.
The next day, the assay plates were washed twice with phosphate buffered saline (PBS), fixed with 100 μl per well of 1% glutaraldehyde and 1 mM MgCl2 in PBS for 15 minutes and washed twice with PBS. β-galactosidase activity was detected by the addition of 100 μl of freshly-prepared 0.2% X-Gal in 1 mM MgCl2, 3.3 mM potassium ferricyanide and 3.3 mM potassium ferrocyanide in PBS per well. Plates were incubated for 6 hours at 37° C. in 5% CO2 and colour change was detected by reading the plates at 650 nm on an Emax Precision Microplate Reader (Molecular Devices).

In brackets after ≈: the same amount, converted by molar mass.

`CC1(C)CCC(C)(C)c2cc(C#Cc3ccc(C(=O)O)cc3)ccc21` [EC23, reference compound]: the EC50 (commonly the concentration needed to bring the measured effect to its halfway point) with ERK1/2 (Homo sapiens, 0.5 h, read-out: Non-genomic activity (ERK½ Phosphorylation Assay) Potency (EC50)) is 0.0318 µM; in data set [2] (read-out: Genomic Activity (X-Gal RA Based Reporter Assay) Potency (EC50)), 0.000128 µM. For the same molecule, the “Non-genomic activity (ERK½ Phosphorylation Assay) Efficacy (Emax)” value in the data set with ERK1/2 came to 91.93. Moreover, the solubility (usually the concentration that dissolves in the medium under given conditions) at 2 h in data set [1] worked out at 6.5 µM (≈ 2.16 µg/mL). Besides, in the data set on SH-SY5Y cells, the fold induction at 0.01 µM came out at 2.2. In addition, the “Genomic Activity (X-Gal RA Based Reporter Assay) Efficacy (Emax)” value in data set [2] turned out to be 169.18.
